Laboratory results: PubChem BioAssay (NCI)
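Step 1: Grow cells in 96-well plates. Step 2: Expose to compound for 48 hours at 5 concentrations. Step 3: Interpolate endpoints linearly; if unreached, use highest concentration. Abbreviation: GI50, concentration required for 50% inhibition of growth. TGI is the concentration that stops growth completely.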

How the values were obtained:
Experiment in all cases: NCI anticancer screen, dose series, 48 h
HCT-116 colon = test system: HCT-116 colon
SF-539 CNS = test system: SF-539 CNS
NCI-H23 lung = test system: NCI-H23 lung
M14 melanoma = test system: M14 melanoma
HOP-92 NSCLC = test system: HOP-92 NSCLC
RXF 393 renal = test system: RXF 393 renal
MCF7 breast = test system: MCF7 breast
SN12C renal = test system: SN12C renal
SNB-75 CNS = test system: SNB-75 CNS
SK-MEL-5 melanoma = test system: SK-MEL-5 melanoma
NCI-H226 lung = test system: NCI-H226 lung
A549 NSCLC = test system: A549 NSCLC
CCRF-CEM leukemia = test system: CCRF-CEM leukemia
UO-31 renal = test system: UO-31 renal
MDA-MB-435 = test system: MDA-MB-435
SK-MEL-28 melanoma = test system: SK-MEL-28 melanoma
MALME-3M melanoma = test system: MALME-3M melanoma
PC-3 prostate = test system: PC-3 prostate
SF-295 CNS = test system: SF-295 CNS
RPMI-8226 leukemia = test system: RPMI-8226 leukemia
COLO 205 colon = test system: COLO 205 colon
HT29 colon = test system: HT29 colon
MOLT-4 leukemia = test system: MOLT-4 leukemia
MDA-MB-231 breast = test system: MDA-MB-231 breast
KM12 colon = test system: KM12 colon
OVCAR-5 ovarian = test system: OVCAR-5 ovarian
IGROV1 ovarian = test system: IGROV1 ovarian
SNB-19 CNS = test system: SNB-19 CNS
CAKI-1 renal = test system: CAKI-1 renal
786-0 renal = test system: 786-0 renal
TK-10 renal = test system: TK-10 renal
SK-OV-3 ovarian = test system: SK-OV-3 ovarian
NCI/ADR-RES ovarian = test system: NCI/ADR-RES ovarian
HL-60(TB) leukemia = test system: HL-60(TB) leukemia
NCI-H460 lung = test system: NCI-H460 lung
UACC-62 melanoma = test system: UACC-62 melanoma
SF-268 CNS = test system: SF-268 CNS
OVCAR-3 ovarian = test system: OVCAR-3 ovarian
HOP-62 NSCLC = test system: HOP-62 NSCLC
HCT-15 colon = test system: HCT-15 colon
SW-620 colon = test system: SW-620 colon
K-562 leukemia = test system: K-562 leukemia
OVCAR-8 ovarian = test system: OVCAR-8 ovarian
DU-145 prostate = test system: DU-145 prostate
UACC-257 melanoma = test system: UACC-257 melanoma
ACHN renal = test system: ACHN renal
EKVX NSCLC = test system: EKVX NSCLC
SK-MEL-2 melanoma = test system: SK-MEL-2 melanoma
T-47D breast = test system: T-47D breast
U251 CNS = test system: U251 CNS
BT-549 breast = test system: BT-549 breast
OVCAR-4 ovarian = test system: OVCAR-4 ovarian
LOX IMVI melanoma = test system: LOX IMVI melanoma
NCI-H522 lung = test system: NCI-H522 lung
HS 578T breast = test system: HS 578T breast

## Cn1c(Cl)c(/C=C2/C(=O)Nc3ccccc32)c2ccccc21
HCT-116 colon
  GI50: 0.306 µM
  TGI: 12.3 µM
SF-539 CNS
  GI50: 0.17 µM
  TGI: 1.06 µM
NCI-H23 lung
  GI50: 1.02 µM
  TGI: 8.89 µM
M14 melanoma
  GI50: 0.248 µM
  TGI: 5.46 µM
HOP-92 NSCLC
  GI50: 13.4 µM
  TGI: > 100 µM
RXF 393 renal
  GI50: 0.392 µM
  TGI: > 19.6 µM
MCF7 breast
  GI50: 0.198 µM
SN12C renal
  GI50: 1.87 µM
  TGI: 23.7 µM
SNB-75 CNS
  GI50: 3.28 µM
  TGI: 23 µM
SK-MEL-5 melanoma
  GI50: 0.0964 µM
  TGI: 1.23 µM
NCI-H226 lung
  GI50: 1.83 µM
  TGI: 21.9 µM
A549 NSCLC
  GI50: 6.58 µM
  TGI: > 63 µM
CCRF-CEM leukemia
  GI50: 0.592 µM
  TGI: > 22.1 µM
UO-31 renal
  GI50: 3.39 µM
  TGI: 44.7 µM
MDA-MB-435
  GI50: < 0.0438 µM
  TGI: 0.152 µM
SK-MEL-28 melanoma
  GI50: 1.08 µM
  TGI: 19.7 µM
MALME-3M melanoma
  GI50: 0.179 µM
  TGI: 15.3 µM
PC-3 prostate
  GI50: 0.859 µM
  TGI: > 33.7 µM
SF-295 CNS
  GI50: 0.223 µM
  TGI: 2.21 µM
RPMI-8226 leukemia
  GI50: 0.582 µM
  TGI: 4.6 µM
COLO 205 colon
  GI50: 0.705 µM
  TGI: 6.64 µM
HT29 colon
  GI50: 0.144 µM
  TGI: > 100 µM
MOLT-4 leukemia
  GI50: 0.139 µM
MDA-MB-231 breast
  GI50: 0.588 µM
  TGI: 12.7 µM
KM12 colon
  GI50: 0.0689 µM
  TGI: 1.27 µM
OVCAR-5 ovarian
  GI50: 3.85 µM
  TGI: 27.8 µM
IGROV1 ovarian
  GI50: 2.12 µM
  TGI: > 100 µM
SNB-19 CNS
  GI50: 0.935 µM
  TGI: 29.9 µM
CAKI-1 renal
  GI50: 0.603 µM
  TGI: 17.9 µM
786-0 renal
  GI50: 1.32 µM
  TGI: 20.5 µM
TK-10 renal
  GI50: 1.5 µM
  TGI: 20.4 µM
SK-OV-3 ovarian
  GI50: 0.732 µM
  TGI: 10.5 µM
NCI/ADR-RES ovarian
  GI50: 0.371 µM
  TGI: 3.57 µM
HL-60(TB) leukemia
  GI50: 0.14 µM
  TGI: 1.92 µM
NCI-H460 lung
  GI50: 0.727 µM
  TGI: > 32.2 µM
UACC-62 melanoma
  GI50: 0.13 µM
  TGI: 7.1 µM
SF-268 CNS
  GI50: 4.08 µM
  TGI: > 35.7 µM
OVCAR-3 ovarian
  GI50: 0.204 µM
  TGI: 1.26 µM
HOP-62 NSCLC
  GI50: 0.293 µM
  TGI: 6.68 µM
HCT-15 colon
  GI50: 0.16 µM
  TGI: 11.9 µM
SW-620 colon
  GI50: 0.299 µM
  TGI: 14.7 µM
K-562 leukemia
  GI50: 0.0601 µM
  TGI: > 100 µM
OVCAR-8 ovarian
  GI50: 1.7 µM
  TGI: > 37.1 µM
DU-145 prostate
  GI50: 1.4 µM
  TGI: 15.8 µM
UACC-257 melanoma
  GI50: 10.7 µM
  TGI: 37.8 µM
ACHN renal
  GI50: 1.15 µM
  TGI: 18.8 µM
EKVX NSCLC
  TGI: 7.52 µM
SK-MEL-2 melanoma
  GI50: 2.32 µM
  TGI: 26.1 µM
T-47D breast
  GI50: 0.724 µM
  TGI: 23.9 µM
U251 CNS
  GI50: 0.758 µM
  TGI: 14.9 µM
BT-549 breast
  GI50: 0.243 µM
  TGI: 3.87 µM
OVCAR-4 ovarian
  GI50: 2.62 µM
  TGI: > 46.7 µM
LOX IMVI melanoma
  GI50: 1.16 µM
  TGI: 18.9 µM
NCI-H522 lung
  GI50: 2.39 µM
  TGI: 22.4 µM
HS 578T breast
  GI50: 0.248 µM
  TGI: 2.03 µM
